In the assay the target is T1, canine TRPM8 (Canis lupus familiaris, UniProt Q1A7N1).
T1 construct: expressed in transfected cells
Kind of assay: In vitro canine TRPM8 functional assay (icilin-induced intracellular Ca2+, FLIPR/FDSS).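 For all read-outs here: intracellular Ca2+ tracked with a Ca2+-sensitive fluorescent dye, compound applied 5 min before icilin was added.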 It is filed as cell-based. Conditions: HEK293 cells stably expressing canine TRPM8; for inhibition at 0.2 µM: 0.200 μM compound, icilin challenge (~80% maximal response), read-out: % Inh. @ 0.200 μM; for IC50: icilin challenge, eight-point dose-response.

SMILES strings stand for the structures. Structures can show the parent of a compound that is named as a salt.

In general, IC50 refers to the point on the concentration scale where inhibition reaches its midpoint. Read a low IC50 as higher potency.

T1 sequence (Q1A7N1 1-1104): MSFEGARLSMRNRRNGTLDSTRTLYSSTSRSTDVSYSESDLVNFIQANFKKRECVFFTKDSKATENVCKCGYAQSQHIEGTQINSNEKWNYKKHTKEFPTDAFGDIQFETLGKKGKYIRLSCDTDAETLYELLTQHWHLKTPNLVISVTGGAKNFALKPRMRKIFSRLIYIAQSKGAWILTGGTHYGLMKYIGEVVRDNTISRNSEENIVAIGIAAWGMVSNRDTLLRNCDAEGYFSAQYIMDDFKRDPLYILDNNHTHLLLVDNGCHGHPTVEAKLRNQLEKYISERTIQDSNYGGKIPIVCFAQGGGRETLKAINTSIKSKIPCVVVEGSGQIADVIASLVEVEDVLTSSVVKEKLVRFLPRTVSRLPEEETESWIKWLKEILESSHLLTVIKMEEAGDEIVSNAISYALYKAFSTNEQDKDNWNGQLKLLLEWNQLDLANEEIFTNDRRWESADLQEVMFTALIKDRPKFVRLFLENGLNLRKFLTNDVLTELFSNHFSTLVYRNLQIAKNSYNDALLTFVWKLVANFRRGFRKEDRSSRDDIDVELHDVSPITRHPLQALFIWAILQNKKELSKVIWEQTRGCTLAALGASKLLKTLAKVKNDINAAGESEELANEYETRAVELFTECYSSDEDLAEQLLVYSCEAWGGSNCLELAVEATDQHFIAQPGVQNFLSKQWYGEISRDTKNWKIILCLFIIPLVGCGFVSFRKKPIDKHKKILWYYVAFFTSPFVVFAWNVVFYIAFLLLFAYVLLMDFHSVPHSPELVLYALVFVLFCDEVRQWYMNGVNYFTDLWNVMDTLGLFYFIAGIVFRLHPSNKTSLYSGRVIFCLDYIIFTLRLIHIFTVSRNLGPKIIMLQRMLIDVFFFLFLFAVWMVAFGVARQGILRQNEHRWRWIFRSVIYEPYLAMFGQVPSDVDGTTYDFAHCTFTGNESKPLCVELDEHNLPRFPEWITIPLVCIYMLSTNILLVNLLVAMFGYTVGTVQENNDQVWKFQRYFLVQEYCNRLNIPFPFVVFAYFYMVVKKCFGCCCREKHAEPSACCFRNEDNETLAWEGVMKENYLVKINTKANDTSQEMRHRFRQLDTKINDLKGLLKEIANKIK

`FC(F)(F)Oc1ccccc1-c1ccc2nc(C3=NC4(CCCCC4)CO3)[nH]c2c1` [Cpd 2, 2-[5-(2-Trifluoromethoxy-phenyl)-1H-benzimidazol-2-yl]-3-oxa-1-aza-spiro[4.5]dec-1-ene]: the inhibition at 0.2 µM is 106% and the IC50 stood at 7 nM. Regarding `FC(F)(F)Oc1ccccc1-c1ccc2[nH]c(C3=NCC4(CCCCC4)O3)nc2c1` [Cpd 3, 2-[5-(2-Trifluoromethoxy-phenyl)-1H-benzimidazol-2-yl]-1-oxa-3-aza-spiro[4.5]dec-2-ene], the inhibition at 0.2 µM stood at 60%. Consider `FC(F)(F)c1ccccc1-c1ccc2[nH]c(C3=NCC4(CCCCC4)O3)nc2c1` [Cpd 4, 2-[5-(2-Trifluoromethyl-phenyl)-1H-benzimidazol-2-yl]-1-oxa-3-aza-spiro[4.5]dec-2-ene], for which the inhibition at 0.2 µM was 84%.

With `FC(F)(F)c1ccccc1-c1ccc2[nH]c(C3=NOC4(CCOCC4)C3)nc2c1` [Cpd 9, 3-[5-(2-Trifluoromethylphenyl)-1H-benzimidazol-2-yl]-1,8-dioxa-2-aza-spiro[4.5]dec-2-ene], the inhibition at 0.2 µM was 101%. For the molecule `FC(F)(F)Cc1ccccc1-c1ccc2[nH]c(C3=NOC4(CCCCC4)C3)nc2c1` [Cpd 11, 3-{5-[2-(2,2,2-Trifluoroethyl)-phenyl]-1H-benzimidazol-2-yl}-1-oxa-2-aza-spiro[4.5]dec-2-ene], the inhibition at 0.2 µM was found to be 102% and half-maximal inhibition (IC50) required 1.5 nM.

In the case of `Fc1cc(-c2ccccc2C(F)(F)F)cc2nc(C3=NOC4(CCCCC4)C3)[nH]c12` [Cpd 14, 3-[7-Fluoro-5-(2-trifluoromethyl-phenyl)-1H-benzimidazol-2-yl]-1-oxa-2-aza-spiro[4.5]dec-2-ene hydrochloride], the inhibition at 0.2 µM was 102%. As for `CC1C(c2nc3cc(-c4ccccc4C(F)(F)F)ccc3[nH]2)=NOC12CCCCC2` (stereo not drawn) [Cpd 15, 4-Methyl-3-[5-(2-trifluoromethyl-phenyl)-1H-benzimidazol-2-yl]-1-oxa-2-aza-spiro[4.5]dec-2-ene hydrochloride], the inhibition at 0.2 µM is 102% and inhibition was half-maximal at 3.9 nM (IC50). On to `Cc1cc(-c2ccccc2OC(F)F)cc2nc(C3=NOC4(CCCCC4)C3)[nH]c12` [Cpd 20, 3-[5-(2-Difluoromethoxyphenyl)-7-methyl-1H-benzimidazol-2-yl]-1-oxa-2-aza-spiro[4.5]dec-2-ene hydrochloride], for which the inhibition at 0.2 µM turned out to be 103% and the IC50 is 1.8 nM. For the molecule `OCCCc1cc(-c2ccccc2C(F)(F)F)cc2nc(C3=NOC4(CCCCC4)C3)[nH]c12` [Cpd 22, 3-[2-(1-Oxa-2-aza-spiro[4.5]dec-2-en-3-yl)-6-(2-trifluoromethylphenyl)-3H-benzimidazol-4-yl]-propan-1-ol hydrochloride], the inhibition at 0.2 µM is 103%.

On to `Fc1ccccc1-c1ccc2[nH]c(C3=NOC4(CCCCC4)C3)nc2c1` [Cpd 23, 3-[5-(2-Fluoro-phenyl)-1H-benzimidazol-2-yl]-1-oxa-2-aza-spiro[4.5]dec-2-ene trifluoroacetic acid salt], for which the inhibition at 0.2 µM worked out at 103%. Take `Cc1c(-c2ccccc2C(F)(F)F)ccc2[nH]c(C3=NOC4(CCCCC4)C3)nc12` [Cpd 24, 3-[4-Methyl-5-(2-trifluoromethyl-phenyl)-1H-benzimidazol-2-yl]-1-oxa-2-aza-spiro[4.5]dec-2-ene hydrochloride]: the inhibition at 0.2 µM was found to be 103% and 5.6 nM corresponded to half-maximal inhibition (IC50). As for `OC/C=C\c1cc(-c2ccccc2C(F)(F)F)cc2nc(C3=NOC4(CCCCC4)C3)[nH]c12` [Cpd 25, 3-[2-(1-Oxa-2-aza-spiro[4.5]dec-2-en-3-yl)-6-(2-trifluoromethylphenyl)-3H-benzimidazol-4-yl]-prop-2-en-1-ol], the inhibition at 0.2 µM turned out to be 100% and the IC50 came to 0.8 nM. Turning to `Fc1cccc(F)c1-c1ccc2[nH]c(C3=NOC4(CCCCC4)C3)nc2c1` [Cpd 26, 3-[5-(2,6-Difluoro-phenyl)-1H-benzimidazol-2-yl]-1-oxa-2-aza-spiro[4.5]dec-2-ene trifluoroacetic acid salt], the inhibition at 0.2 µM was 100%. Regarding `FC(F)(F)c1ccccc1-c1ccc2[nH]c(C3=NC4(CCOCC4)CO3)nc2c1` [Cpd 29, 2-[5-(2-Trifluoromethyl-phenyl)-1H-benzimidazol-2-yl]-3,8-dioxa-1-aza-spiro[4.5]dec-1-ene], the inhibition at 0.2 µM stood at 71% and the IC50 is 100 nM. The matching figures for `Fc1ccccc1-c1ccc2[nH]c(C3=NOC4(CCOCC4)C3)nc2c1` [Cpd 31, 3-[5-(2-Fluoro-phenyl)-1H-benzimidazol-2-yl]-1,8-dioxa-2-aza-spiro[4.5]dec-2-ene hydrochloride]: 99% and 13.4 nM. In the case of `Cc1cc(-c2ccccc2C(F)(F)F)cc2nc(C3=NOC4(CCOCC4)C3)[nH]c12` [Cpd 32, 3-[7-Methyl-5-(2-trifluoromethyl-phenyl)-1H-benzimidazol-2-yl]-1,8-dioxa-2-aza-spiro[4.5]dec-2-ene hydrochloride], the inhibition at 0.2 µM was 100% and the IC50 was found to be 4.9 nM. The like results for `FC(F)(F)c1ccccc1-c1cc(Br)c2[nH]c(C3=NOC4(CCOCC4)C3)nc2c1` [Cpd 33, 3-[7-Bromo-5-(2-trifluoromethyl-phenyl)-1H-benzimidazol-2-yl]-1,8-dioxa-2-aza-spiro[4.5]dec-2-ene hydrochloride] were, in that order, 100% and 1.7 nM. As to `N#Cc1cc(-c2ccccc2C(F)(F)F)cc2nc(C3=NOC4(CCOCC4)C3)[nH]c12` [Cpd 35, 2-(1,8-Dioxa-2-aza-spiro[4.5]dec-2-en-3-yl)-6-(2-trifluoromethyl-phenyl)-3H-benzimidazole-4-carbonitrile hydrochloride], the inhibition at 0.2 µM was 100% and the IC50 was 5.2 nM. The like results for `CC1(C)CCC2(CC1)CC(c1nc3cc(-c4ccccc4C(F)(F)F)ccc3[nH]1)=NO2` [Cpd 36, 8,8-Dimethyl-3-[5-(2-trifluoromethyl-phenyl)-1H-benzimidazol-2-yl]-1-oxa-2-aza-spiro[4.5]dec-2-ene hydrochloride] were, in that order, 99% and 12.5 nM. As for `CC1(C)CCC2(CC1)CC(c1nc3cc(-c4ccccc4Cl)ccc3[nH]1)=NO2` [Cpd 37, 3-[5-(Chloro-phenyl)-1H-benzimidazol-2-yl]-8,8-dimethyl-1-oxa-2-aza-spiro[4.5]dec-2-ene hydrochloride], the inhibition at 0.2 µM was found to be 99% and the IC50 was found to be 5.2 nM. The like results for `Fc1cccc(F)c1-c1ccc2[nH]c(C3=NOC4(CCOCC4)C3)nc2c1` [Cpd 38, 3-[5-(2,6-Difluoro-phenyl)-1H-benzimidazol-2-yl]-1,8-dioxa-2-aza-spiro[4.5]dec-2-ene hydrochloride] were, in that order, 99% and 8.3 nM.

Consider `CC1(C)CCC2(CC1)CC(c1nc3cc(-c4ccccc4C(F)(F)F)cc(C(F)(F)F)c3[nH]1)=NO2` [Cpd 39, 8,8-Dimethyl-3-[7-trifluoromethyl-5-(2-trifluoromethyl-phenyl)-1H-benzimidazol-2-yl]-1-oxa-2-aza-spiro[4.5]dec-2-ene hydrochloride], for which the inhibition at 0.2 µM was found to be 99% and the IC50 was determined as 6.3 nM.

As to `Clc1ccccc1-c1ccc2[nH]c(C3=NOC4(CCOCC4)C3)nc2c1` [Cpd 40, 3-[5-(2-Chloro-phenyl)-1H-benzimidazol-2-yl]-1,8-dioxa-2-aza-spiro[4.5]dec-2-ene hydrochloride], the inhibition at 0.2 µM was found to be 98% and 11 nM corresponded to half-maximal inhibition (IC50).

The values are drawn from US8232409B2, “Heterocyclic benzimidazoles as TRPM8 modulators” (Janssen Pharmaceutica N.V., priority 2008, dated 2012).
